Measured values from PubChem BioAssay AID1918952 (Molecular Pharmacology Branch, DTP, NCI, 2023).
pIC50: −log10 of the molar value.

Tested on: LG0703-F948-PDC complex spheroid viability
Experiment: Anticancer human tumor LG0703-F948-PDC patient-derived lung adenocarcinoma cell line growth inhibition
Conditions: for pIC50: curve of first compound; for viability, T/C: stronger effect = lower value; active means viability on the fitted dose curve at most 10% of control; inactive means the rest
Method in brief: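 Multicellular complex spheroids of tumor cells with human endothelial cells (HUVEC) and mesenchymal stem cells; the LSD1 inhibitor iadademstat was combined with standard-of-care or investigational agents. Top concentration at or near clinical Cmax, half-log dilutions; final DMSO ≤0.25%.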

[1] = second compound 0.1 µM, first compound 0.0316 µM
[2] = second compound 0.1 µM, first compound 0.1 µM
[3] = second compound 0.1 µM, first compound 0.316 µM
[4] = second compound 0.1 µM, first compound 1 µM
[5] = second compound 0.316 µM, first compound 0.0316 µM
[6] = second compound 0.316 µM, first compound 0.1 µM
[7] = second compound 0.316 µM, first compound 0.316 µM
[8] = second compound 0.316 µM, first compound 1 µM
[9] = second compound 1 µM, first compound 0.0316 µM
[10] = second compound 1 µM, first compound 0.1 µM
[11] = second compound 1 µM, first compound 0.316 µM
[12] = second compound 1 µM, first compound 1 µM
[13] = second compound 3.16 µM, first compound 0.0316 µM
[14] = second compound 3.16 µM, first compound 0.1 µM
[15] = second compound 3.16 µM, first compound 0.316 µM
[16] = second compound 3.16 µM, first compound 1 µM
[17] = second compound 10 µM, first compound 0.0316 µM
[18] = second compound 10 µM, first compound 0.1 µM
[19] = second compound 10 µM, first compound 0.316 µM
[20] = second compound 10 µM, first compound 1 µM
[21] = second compound 0.1 µM, first compound 0.00949 µM
[22] = second compound 0.1 µM, first compound 0.03 µM
[23] = second compound 0.1 µM, first compound 0.0949 µM
[24] = second compound 0.1 µM, first compound 0.3 µM
[25] = second compound 0.1 µM, first compound 0.949 µM
[26] = second compound 0.1 µM, first compound 3 µM
[27] = second compound 0.316 µM, first compound 0.00949 µM
[28] = second compound 0.316 µM, first compound 0.03 µM
[29] = second compound 0.316 µM, first compound 0.0949 µM
[30] = second compound 0.316 µM, first compound 0.3 µM
[31] = second compound 0.316 µM, first compound 0.949 µM
[32] = second compound 0.316 µM, first compound 3 µM
[33] = second compound 1 µM, first compound 0.00949 µM
[34] = second compound 1 µM, first compound 0.03 µM
[35] = second compound 1 µM, first compound 0.0949 µM
[36] = second compound 1 µM, first compound 0.3 µM
[37] = second compound 1 µM, first compound 0.949 µM
[38] = second compound 1 µM, first compound 3 µM
[39] = second compound 3.16 µM, first compound 0.00949 µM
[40] = second compound 3.16 µM, first compound 0.03 µM
[41] = second compound 3.16 µM, first compound 0.0949 µM
[42] = second compound 3.16 µM, first compound 0.3 µM
[43] = second compound 3.16 µM, first compound 0.949 µM
[44] = second compound 3.16 µM, first compound 3 µM
[45] = second compound 10 µM, first compound 0.00949 µM
[46] = second compound 10 µM, first compound 0.03 µM
[47] = second compound 10 µM, first compound 0.0949 µM
[48] = second compound 10 µM, first compound 0.3 µM
[49] = second compound 10 µM, first compound 0.949 µM
[50] = second compound 10 µM, first compound 3 µM
[51] = second compound 0.1 µM, first compound 0.00316 µM
[52] = second compound 0.1 µM, first compound 0.01 µM
[53] = second compound 0.316 µM, first compound 0.00316 µM
[54] = second compound 0.316 µM, first compound 0.01 µM
[55] = second compound 1 µM, first compound 0.00316 µM
[56] = second compound 1 µM, first compound 0.01 µM
[57] = second compound 3.16 µM, first compound 0.00316 µM
[58] = second compound 3.16 µM, first compound 0.01 µM
[59] = second compound 10 µM, first compound 0.00316 µM
[60] = second compound 10 µM, first compound 0.01 µM
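Further: spheroids exposed to agents for seven days before readout.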
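Wherever viability, T/C is given: 100% = DMSO vehicle control wells as normalization base.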

CC1(C)CCC(CN2CCN(c3ccc(C(=O)NS(=O)(=O)c4ccc(NCC5CCOCC5)c([N+](=O)[O-])c4)c(Oc4cnc5[nH]ccc5c4)c3)CC2)=C(c2ccc(Cl)cc2)C1 + NC1CC1c1ccc(-c2cccc(O)c2)cc1
5.61: pIC50 (second compound 0.316 µM)
5.57: pIC50 (second compound 0.1 µM)
inactive: viability, T/C [1] 98.2% | viability, T/C [2] 113% | viability, T/C [3] 111% | viability, T/C [4] 98% | viability, T/C (second compound 0.1 µM, first compound 3.16 µM) 42.8% | viability, T/C [5] 102% | viability, T/C [6] 103% | viability, T/C [7] 100% | viability, T/C [8] 103% | viability, T/C (second compound 0.316 µM, first compound 3.16 µM) 35.6% | viability, T/C [9] 106% | viability, T/C [10] 104% | viability, T/C [11] 111% | viability, T/C [12] 85.6% | viability, T/C (second compound 1 µM, first compound 3.16 µM) 43.8% | viability, T/C [13] 104% | viability, T/C [14] 81.7% | viability, T/C [15] 102% | viability, T/C [16] 111% | viability, T/C (second compound 3.16 µM, first compound 3.16 µM) 32.5% | viability, T/C [17] 103% | viability, T/C [18] 104% | viability, T/C [19] 93.9% | viability, T/C [20] 86.4% | viability, T/C (second compound 10 µM, first compound 3.16 µM) 38%
5.63: pIC50 (second compound 3.16 µM) | pIC50 (second compound 10 µM)
5.58: pIC50 (second compound 1 µM)
active: viability, T/C (second compound 0.1 µM, first compound 10 µM) 3.56% | viability, T/C (second compound 0.316 µM, first compound 10 µM) 3% | viability, T/C (second compound 1 µM, first compound 10 µM) 5.17% | viability, T/C (second compound 3.16 µM, first compound 10 µM) 3.01% | viability, T/C (second compound 10 µM, first compound 10 µM) 3.13%

CCN(c1cc(-c2ccc(CN3CCOCC3)cc2)cc(C(=O)NCc2c(C)cc(C)[nH]c2=O)c1C)C1CCOCC1 + NC1CC1c1ccc(-c2cccc(O)c2)cc1
inactive: viability, T/C [21] 104% | viability, T/C [22] 113% | viability, T/C [23] 93.7% | viability, T/C [24] 105% | viability, T/C [25] 107% | viability, T/C [26] 105% | viability, T/C [27] 112% | viability, T/C [28] 93.9% | viability, T/C [29] 101% | viability, T/C [30] 93.6% | viability, T/C [31] 102% | viability, T/C [32] 94.9% | viability, T/C [33] 89.3% | viability, T/C [34] 98.8% | viability, T/C [35] 95.6% | viability, T/C [36] 96.2% | viability, T/C [37] 94.7% | viability, T/C [38] 93.2% | viability, T/C [39] 93.7% | viability, T/C [40] 95.6% | viability, T/C [41] 93.7% | viability, T/C [42] 85.1% | viability, T/C [43] 99.7% | viability, T/C [44] 95.2% | viability, T/C [45] 105% | viability, T/C [46] 91.9% | viability, T/C [47] 84.6% | viability, T/C [48] 81.6% | viability, T/C [49] 81.8% | viability, T/C [50] 86.1%
< 5.52: pIC50 (second compound 0.1 µM) | pIC50 (second compound 0.316 µM) | pIC50 (second compound 1 µM) | pIC50 (second compound 3.16 µM) | pIC50 (second compound 10 µM)

COc1cc(Nc2ncc3c(n2)-c2ccc(Cl)cc2C(c2c(F)cccc2OC)=NC3)ccc1C(=O)O + NC1CC1c1ccc(-c2cccc(O)c2)cc1
inactive: viability, T/C [51] 91.5% | viability, T/C [52] 85.6% | viability, T/C [1] 91.6% | viability, T/C [2] 76.1% | viability, T/C [3] 32.1% | viability, T/C [53] 95.3% | viability, T/C [54] 93.8% | viability, T/C [5] 80.8% | viability, T/C [6] 67.6% | viability, T/C [7] 33.5% | viability, T/C [55] 106% | viability, T/C [56] 100% | viability, T/C [9] 85.6% | viability, T/C [10] 70.5% | viability, T/C [11] 36.3% | viability, T/C [57] 95.5% | viability, T/C [58] 111% | viability, T/C [13] 94.2% | viability, T/C [14] 70.5% | viability, T/C [15] 33.1% | viability, T/C [59] 113% | viability, T/C [60] 97.6% | viability, T/C [17] 94.1% | viability, T/C [18] 64.8% | viability, T/C [19] 34.8%
6.74: pIC50 (second compound 10 µM)
active: viability, T/C [4] 3.58% | viability, T/C [8] 3.78% | viability, T/C [12] 3.36% | viability, T/C [16] 4.2% | viability, T/C [20] 6.35%
6.73: pIC50 (second compound 3.16 µM)
6.70: pIC50 (second compound 0.1 µM) | pIC50 (second compound 1 µM)
6.75: pIC50 (second compound 0.316 µM)

Cn1ncnc1C1c2n[nH]c(=O)c3cc(F)cc(c23)NC1c1ccc(F)cc1 (stereo not given) + NC1CC1c1ccc(-c2cccc(O)c2)cc1
< 7.00: pIC50 (second compound 0.1 µM) | pIC50 (second compound 0.316 µM) | pIC50 (second compound 1 µM) | pIC50 (second compound 3.16 µM) | pIC50 (second compound 10 µM)
inactive: viability, T/C (second compound 0.1 µM, first compound 0.000316 µM) 105% | viability, T/C (second compound 0.1 µM, first compound 0.001 µM) 114% | viability, T/C [51] 94.9% | viability, T/C [52] 100% | viability, T/C [1] 108% | viability, T/C [2] 125% | viability, T/C (second compound 0.316 µM, first compound 0.000316 µM) 113% | viability, T/C (second compound 0.316 µM, first compound 0.001 µM) 114% | viability, T/C [53] 117% | viability, T/C [54] 100% | viability, T/C [5] 93.7% | viability, T/C [6] 105% | viability, T/C (second compound 1 µM, first compound 0.000316 µM) 102% | viability, T/C (second compound 1 µM, first compound 0.001 µM) 112% | viability, T/C [55] 120% | viability, T/C [56] 109% | viability, T/C [9] 111% | viability, T/C [10] 106% | viability, T/C (second compound 3.16 µM, first compound 0.000316 µM) 119% | viability, T/C (second compound 3.16 µM, first compound 0.001 µM) 123% | viability, T/C [57] 101% | viability, T/C [58] 107% | viability, T/C [13] 114% | viability, T/C [14] 124% | viability, T/C (second compound 10 µM, first compound 0.000316 µM) 108% | viability, T/C (second compound 10 µM, first compound 0.001 µM) 101% | viability, T/C [59] 104% | viability, T/C [60] 100% | viability, T/C [17] 100% | viability, T/C [18] 99.8%

NS(=O)(=O)OCC1CC(n2ccc3c(NC4CCc5ccccc54)ncnc32)CC1O (stereo not given) + NC1CC1c1ccc(-c2cccc(O)c2)cc1
6.25: pIC50 (second compound 1 µM) | pIC50 (second compound 3.16 µM)
6.24: pIC50 (second compound 0.316 µM)
inactive: viability, T/C [21] 101% | viability, T/C [22] 113% | viability, T/C [23] 104% | viability, T/C [24] 75.2% | viability, T/C [25] 40.9% | viability, T/C [26] 19% | viability, T/C [27] 118% | viability, T/C [28] 104% | viability, T/C [29] 105% | viability, T/C [30] 73.9% | viability, T/C [31] 31.9% | viability, T/C [32] 21.6% | viability, T/C [33] 107% | viability, T/C [34] 117% | viability, T/C [35] 103% | viability, T/C [36] 68% | viability, T/C [37] 35.6% | viability, T/C [38] 18.6% | viability, T/C [39] 110% | viability, T/C [40] 105% | viability, T/C [41] 98.4% | viability, T/C [42] 70.4% | viability, T/C [43] 32.6% | viability, T/C [44] 16% | viability, T/C [45] 107% | viability, T/C [46] 104% | viability, T/C [47] 81.2% | viability, T/C [48] 50.8% | viability, T/C [49] 23.8% | viability, T/C [50] 12.6%
6.52: pIC50 (second compound 10 µM)
6.17: pIC50 (second compound 0.1 µM)
